Patent US12384745B2, “Crystal form of five-membered n heterocyclic compound, and application thereof” (CHIA TAI TIANQING PHARMACEUTICAL GROUP CO., LTD., priority 2019, dated 2025)

Columns and labels:
[1] = Stability assay of crystalline form (influential factors); format: physicochemical
Protocol: 1.1. Preparation of Samples
500 mg of the crystalline form A of the compound of formula I prepared in Example 2 was placed in a dry and clean container, and evenly spread in a thin layer as the test sample. The sample was completely exposed to experimental conditions of influential factors (40° C., 60° C., 75% RH, 92.5% RH, high temperature and high humidity (40° C., 75% RH)). Samples were taken for analysis on day 10. The samples were completely exposed to illumination (visible light of 1,200,000 Lux·hr, UV of 216 W·hr/m^2) at room temperature.
1.2. Chromatographic Conditions
Chromatographic column: Waters XBridge Shield RP18 (4.6 mm×150 mm, 3.5 μm).
The water content was measured by a Mettler V20 system.
1.3. Preparation of Sample Solution
About 12.5 mg of the sample was dissolved with an appropriate amount of a mixed diluent of acetonitrile-water (70:30) for content assay of related substance.

[2] = system: HBV DNA in HepAD38 cells; test: In-vitro inhibitory activity against HBV DNA in HepAD38 cells; format: cell-based; details: Hepatitis B virus, 144 h, 6 days treatment, intracellular capsid HBV DNA by qPCR, read-out: EC50, anti-HBV activity
Protocol: (§1) 2.1. In-vitro Inhibitory Activity Against HBV DNA in Cells
(§2) A vial of HepG2.2.15 cells (Wuhan Institute of Virology) or HepAD38 cells in good condition and at logarithmic growth phase was washed once with 5 mL of PBS. 3 mL of pancreatin was added. The cells were digested at room temperature for 5 min, then 2 mL of pancreatin was discarded. The cells were further digested in a cell incubator for 10 min, and observed under a microscope (whether the cells are round in shape, and whether the cells are separated or adhered). 10 mL of complete medium was added to terminate the digestion. The cells was mixed using a pipette to obtain a single cell suspension. 10 μL of the cell suspension was loaded on a cell counter for counting, and diluted with the complete medium to adjust the cell density to 1×10^5 cells/mL. The cells were seeded on a 24-well plate (pre-coated with 50 μg/mL Collagen I solution) at 1 mL/well using a multi-channel pipette and cultured in a thermostatic CO2 incubator for 48 h.
(§3) A solution of the compound dissolved in DMSO was diluted to 10 concentrations in a 2-fold gradient using complete medium. […] HBV DNA in the intracellular viral capsid was measured by real-time fluorescent quantitative PCR. The inhibition rate was calculated according to the Ct value, and the EC50 value was calculated by four-parameter fitting.

[3] = system: HBV DNA in HepG2.2.15 cells; test: In-vitro inhibitory activity against HBV DNA in HepG2.2.15 cells; format: cell-based; details: Hepatitis B virus, 144 h, 6 days treatment, intracellular capsid HBV DNA by qPCR, read-out: EC50, anti-HBV activity
Protocol: as §1, §2, §3

[4] = system: HepG2.2.15 cells; test: In vitro cytotoxicity (CCK-8); format: cell-based; details: 6 days treatment
Protocol: 2.2. In Vitro Cytotoxicity
A vial of HepG2.2.15 cells (Wuhan Institute of Virology) in good condition and at logarithmic growth phase was washed once with 5 mL of PBS. 2 mL of pancreatin was added. The cells were incubated in a cell incubator for digestion, and observed at times under a microscope. 1 mL of pancreatin was discarded when the cells just fell off, leaving the residual liquid only. The cells were further incubated in the incubator at 37° C. for 8-15 min of digestion and observed under a microscope (whether the cells are round in shape, and whether the cells are separated or adhered). 5 mL of MEM medium was added for cell resuspension. The cell suspension was loaded on a cell counter for counting, and diluted with the complete medium to adjust the cell density to 2×10^5 cells/mL. The cells were seeded on a 96-well plate (pre-coated with 50 μg/mL Collagen I solution) at 100 μL/well using a multi-channel pipette and cultured in a thermostatic CO2 incubator for 24 h. The compound was added, and the medium containing the compound was refreshed every 3 days. A medium containing 0.5% of DMSO but no compound was added to the control wells, and control wells of basal medium were set. After 6 days of treatment, CCK-8 was added at 10 μL/well, and after 1-2 h, the absorbance at 450 nm was measured with a plate reader. The inhibition rate and CC50 were calculated.

[5] = Plasma protein binding assay, human plasma; format: in vitro ADME
Protocol: (§4) 2.4. Plasma Protein Binding Assay
(§5) Preparation of plasma samples: 5 μL of test compound solution or positive control was added to 495 μL of blank plasma of various species (mouse, rat, dog, monkey and human) to obtain plasma sample solutions at plasma concentrations of 1 μM and 10 μM (in acetonitrile).
(§6) The pretreated dialysis membrane was loaded on a high-throughput equilibrium dialysis system. 100 μL of the plasma sample solution and PBS buffer were added to the two sides (sample side and buffer side) of the dialysis membrane respectively (n=3). The system was sealed with a patch and incubated at 37° C. overnight (100 rpm) to achieve dialysis equilibrium. 50 μL samples were taken from the sample side and the buffer side, and the reaction was terminated with glacial acetonitrile containing an internal standard.
(§7) Sample pretreatment: 450 μL of glacial acetonitrile containing an internal standard was added to 50 μL of the sample from the plasma side for precipitation. The mixture was vortexed for 5 min, and centrifuged (12000 rpm, 4° C.) for 10 min. 75 μL of supernatant was taken and diluted with 75 μL of ultrapure water. After being mixed well, 1 μL of the resulting sample was injected for analysis; 250 μL of glacial acetonitrile containing an internal standard was added to 50 μL of the sample from the PBS side for precipitation. […]

[6] = Plasma protein binding assay, rat plasma; format: in vitro ADME
Protocol: as §4, §5, §6, §7

[7] = Plasma protein binding assay, mouse plasma; format: in vitro ADME
Protocol: as §4, §5, §6, §7

[8] = Plasma protein binding assay, dog plasma; format: in vitro ADME
Protocol: as §4, §5, §6, §7

[9] = Plasma protein binding assay, monkey plasma; format: in vitro ADME
Protocol: as §4, §5, §6, §7

[10] = In vitro stability in human liver microsomes; format: in vitro ADME
Protocol: (§8) Experimental Example 3. In Vitro Stability in Liver Microsome A final incubation system of 300 μL contained 30 μL of liver microsomes (protein concentration: 0.15 mg/mL, Corning), 30 μL of NADPH+MgCl2, 3 μL of substrate (in acetonitrile) and 237 μL of PBS. Samples were prepared in duplicate of 0.3 mL for each specie. For each tube, the 270 μL mixed solution of substrates and enzyme and the NADPH solution were separately pre-incubated at 37° C. for 5 min. The 30 μL mixed solution of NADPH+MgCl2 was added for reaction. 50-μL samples were taken at 0 min, 10 min, 30 min and 60 min, and 300 μL of glacial acetonitrile containing an internal standard was added to the samples to terminate the reaction. Sample pretreatment: 300 μL of glacial acetonitrile containing internal standard diazepam was added to 50 μL of the incubated sample for precipitation. The mixture was vortexed for 5 min, and centrifuged (12000 rpm, 4° C.) for 10 min. 75 μL of supernatant was added to a 96-well plate and diluted with 75 μL of ultrapure water. After being mixed well, 0.5 μL of the resulting sample was injected to a LC-MS/MS system for analysis.

[11] = In vitro stability in rat liver microsomes; format: in vitro ADME
Protocol: as §8

[12] = In vitro stability in mouse liver microsomes; format: in vitro ADME
Protocol: as §8

[13] = Pharmacokinetic (PK) study in rats; format: in vivo; details: SD rats, PO 10 mg/kg vs IV 5 mg/kg
Protocol: Pharmacokinetic (PK) Study in Rats […]
The animals to be tested (SD rats) were fasted for 12 h before administration and fed 4 h after administration, and had free access to water before, after and during the experiment.
After administration, about 0.2 mL of blood was collected from the orbit at 0 min, 15 min, 30 min, 1 h, 2 h, 4 h, 6 h, 8 h, 10 h, 24 h, 30 h and 48 h. After anticoagulation with EDTA-K2, the blood samples were transferred to a centrifuge at 4° C. within 30 min and centrifuged at 4000 rpm for 10 min to separate the plasma. All the plasma samples were collected and immediately stored at −20° C. for testing.
50 μL of the plasma sample to be tested and standard curve sample were taken, and 500 μL of acetonitrile solution containing an internal standard (20 mg/mL diazepam) was added. The reaction system was shaken for 5 min and centrifuged at 12,000 rpm for 10 min. 75 μL of supernatant was taken and diluted with 75 μL of ultrapure water. After being mixed well, 1 μL of the resulting sample was taken for LC/MS/MS analysis.

[14] = High humidity (75% RH), 10 days
[15] = High humidity (92.5% RH), 10 days
[16] = High temperature (40° C.), 10 days
[17] = High temperature (60° C.), 10 days
[18] = High temperature and high humidity (40° C., 75% RH), 10 days

For `Cc1[nH]c(C(=O)C(=O)N[C@@H](C)C(F)(F)F)c(C)c1C(=O)Nc1ccc(F)c(C#N)c1` [(S)-N-(3-cyano-4-fluorophenyl)-2,4-dimethyl-5-(2-oxo-2-((1,1,1-trifluoropropan-2-yl)amino)acetyl)-1H-pyrrol-3-formamide], the “Related substance (total impurities)” value ([1]; Day 0) was 0.57%, the Water ([1]; Day 0) was 0.13% and the “Related substance (total impurities)” value [1, 14] was 0.63%. For the same molecule, the Water [1, 14] was 0.15%, the “Related substance (total impurities)” value [1, 15] was 0.65% and the Water [1, 15] was 0.17%. For the same molecule, the “Related substance (total impurities)” value [1, 16] was 0.65%, the Water [1, 16] was 0.17% and the “Related substance (total impurities)” value [1, 17] was 0.65%. The Water [1, 17] was 0.16%, the “Related substance (total impurities)” value [1, 18] was 0.63% and the Water [1, 18] was 0.16%. For the same molecule, the “Related substance (total impurities)” value ([1]; Illumination, 10 days) was 0.64%, the Water ([1]; Illumination, 10 days) was 0.16% and the “Stability at high humidity, at high temperature or under illumination” value ([1]; summary of Table 2) was “good stability”.
In the case of `Cc1[nH]c(C(=O)C(=O)N[C@@H](C)C(F)(F)F)c(C)c1C(=O)Nc1ccc(F)c(C#N)c1` [Compound of formula I, (S)-N-(3-cyano-4-fluorophenyl)-2,4-dimethyl-5-(2-oxo-2-((1,1,1-trifluoropropan-2-yl)amino)acetyl)-1H-pyrrol-3-formamide], the EC50 [2] is reported as 24 nM, the EC50 [3] is reported as 17.4 nM and the CC50 [4] is reported as > 100000 nM. For the same molecule, the Binding rate ([5]; 1 μM) was 97.3%, the Binding rate ([5]; 10 μM) was 97.3% and the Binding rate ([6]; 1 μM) was 95.0%. For the same molecule, the Binding rate ([6]; 10 μM) was 95.3%, the Binding rate ([7]; 1 μM) was 85.4% and the Binding rate ([7]; 10 μM) was 85.5%. The Binding rate ([8]; 1 μM) was 94.0%, the Binding rate ([8]; 10 μM) was 93.9% and the Binding rate ([9]; 1 μM) was 90.2%. The Binding rate ([9]; 10 μM) was 90.5%, the “Human liver microsomes Residual content after 60 min” value [10] was 99% and the “Rat liver microsomes Residual content after 60 min” value [11] was 99%. For the same molecule, the “Mouse liver microsomes Residual content after 60 min” value [12] was 96% and the F [13] was 100%.
